Data published in ChEMBL document CHEMBL1201862, “PubChem BioAssay data set” (2004).
Calls of active or inactive are those of the source. Cut-off read from the data, not from the text of the source, for most assays here: actives have a measured EC50 and inactives only a lower limit.

How the values were obtained:
[1] = system: HT-1080; experiment: cytotoxicity in HT1080 fibrosarcoma cells, cell-based, fluorescence readout (AID 620); assay type: functional; conditions: Homo sapiens
[2] = target: Luciferin 4-monooxygenase (Photinus pyralis, UniProt P08659); experiment: Counter Screen for Luciferase-based Assay Positives. [Related pubchem assays: 620, 618, 411 ]
[3] = target: NS3 (Hepatitis C virus, UniProt A3EZJ3); experiment: PubChem AID 2173; design: species or system Hepacivirus hominis
[4] = Luminescence Cell-Based Dose Response HTS to Identify Inhibitors of 5'UTR Stem-Loop Driven Prion Protein mRNA Translation in H4 Neuroglioblastoma Cells. [Related pubchem assays: 1827 (Project Summary), 1813 (Primary HTS)]; assay type: functional
[5] = target: Estrogen receptor (Homo sapiens, UniProt P03372);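 note: potency for inhibiting coactivator peptide recruitment to the receptor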
[6] = target: T1, Estrogen receptor beta (Homo sapiens, UniProt Q92731);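 note: recombinant ER-beta bound to coactivator SRC1 peptide in presence of estradiol agonist; inhibitors block coactivator peptide binding and lower the FRET signal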
[7] = target: T1, Estrogen receptor beta; experiment: ERβ–SRC-3 coactivator interaction inhibitors, confirmation, orthogonal assay, biochemical, ELISA, streptavidin-HRP readout (AID 1060)
[8] = inhibitors of SNCA 5'UTR-driven reporter translation, confirmation, H4 neuroglioma cells, luminescence (AID 1988); assay type: functional, cell-based
[9] = target: Protein-tyrosine kinase 2-beta (Homo sapiens, UniProt Q14289);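 note: potency of inhibitors of PYK2 kinase phosphorylation of poly-GT substrate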
[10] = inhibitors of intracellular T. cruzi replication, confirmation, NIH3T3 host cells, beta-gal luminescence (AID 2044); assay type: functional, cell-based;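 note: intracellular parasites grown in NIH/3T3 mouse fibroblasts as host cells; luminescent beta-galactosidase reporter signal from transgenic T. cruzi replicating inside host cells; inhibitors lower the luminescence signal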
[11] = cytotoxicity toward NIH3T3 fibroblasts, dose response, counter-screen, cell-based, ATP luminescence, mouse fibroblasts (AID 2010); assay type: functional;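 note: cells exposed to compound for about 90 hours before reading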
[12] = cells
[13] = target: 26S proteasome non-ATPase regulatory subunit 14 (Homo sapiens, UniProt O00487); experiment: inhibition of proteasome subunit RPN11 – biochemical, fluorescence polarization, uHTS hits, confirmation (AID 602368); assay type: functional
[14] = target: Prothrombin (Bos taurus, UniProt P00735); experiment: thrombin inhibition, dose response, biochemical, fluorescence polarization, uHTS hits (AID 602369); assay type: functional
[15] = target: 72 kDa type IV collagenase (Homo sapiens, UniProt P08253); experiment: Dose Response validation of uHTS RPN11 inhibitor hits using a MMP-2 Fluorescence assay.; assay type: functional
[16] = Luminescence Cell-Based Dose Response to Identify Activators of 5'UTR Stem-Loop Driven Prion Protein mRNA Translation in H4-C Neuroglioblastoma Cells. [Related pubchem assays: 1829 (Project Summary), 1814 (Primary HTS)]; assay type: functional
[17] = Luminescence Cell-Based Dose Response to Identify Activators of Luciferase Translation or Activity in H4-C Neuroglioblastoma Cells. [Related pubchem assays: 1829 (Project Summary), 1814 (Primary HTS)]; assay type: functional
[18] = Luminescence Cell-Based Dose Response HTS to Identify Activators of Luciferase Translation or Activity in H4 […] Cells. [Related pubchem assays: 1829 (Project Summary), 1814 (Primary HTS)]; assay type: functional
[19] = Luminescence Cell-Based Dose Confirmation HTS to Identify Activators of 5'UTR Stem-Loop Driven Alpha-Synuclein mRNA Translation in H4 Neuroglioblastoma Cells. [Related pubchem assays: 1829 (Project Summary), 1814 (Primary HTS)]; assay type: functional
[20] = Luminescence Cell-Based Dose Confirmation to Identify Activators of 5'UTR Stem-Loop Driven Alpha-Synuclein mRNA Translation in H4 Neuroglioblastoma Cells. [Related pubchem assays: 1829 (Project Summary), 1814 (Primary HTS)]; assay type: functional
[21] = system: H4; experiment: Luminescence Cell-Based Dose Response HTS to Identify Activators of 5'UTR Stem-Loop Driven Prion Protein mRNA Translation in H4 Neuroglioblastoma Cells. [Related pubchem assays: 1829 (Project Summary), 1814 (Primary HTS)]; assay type: functional; conditions: Homo sapiens
[22] = system: BJ; experiment: cells; assay type: functional, cell-based; conditions: Homo sapiens
[23] = target: T2, Microphthalmia-associated transcription factor (Homo sapiens, UniProt O75030); experiment: TRPM1 promoter luciferase signal decrease, dose response, MITF inhibitor project, cell-based, SK-MEL-5, cherry-picked, set 3 (AID 493073); assay type: functional
T2 sequence (O75030 whole entry): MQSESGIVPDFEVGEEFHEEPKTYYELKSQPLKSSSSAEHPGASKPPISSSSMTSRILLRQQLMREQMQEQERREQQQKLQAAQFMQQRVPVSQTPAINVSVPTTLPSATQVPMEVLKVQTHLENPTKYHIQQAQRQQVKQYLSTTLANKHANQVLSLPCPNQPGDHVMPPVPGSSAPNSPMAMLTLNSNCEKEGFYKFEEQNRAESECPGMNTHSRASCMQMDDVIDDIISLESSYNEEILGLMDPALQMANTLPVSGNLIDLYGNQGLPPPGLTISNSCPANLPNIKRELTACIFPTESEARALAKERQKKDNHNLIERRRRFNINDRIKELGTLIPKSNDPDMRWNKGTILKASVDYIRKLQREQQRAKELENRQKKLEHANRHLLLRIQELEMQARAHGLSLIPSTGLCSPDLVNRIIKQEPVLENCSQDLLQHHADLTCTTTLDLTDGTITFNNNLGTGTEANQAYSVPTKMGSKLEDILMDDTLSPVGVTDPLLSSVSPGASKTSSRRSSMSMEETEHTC

[24] = Vero E6 cell cytotoxicity, dose response, cytotoxicity control for non-replicating M. tuberculosis project, secondary assay (AID 492998); assay type: functional, VeroE6; conditions: Vero C1008
[25] = THP-1 cell cytotoxicity, dose response, cytotoxicity control for non-replicating M. tuberculosis project (AID 489025); assay type: functional
[26] = cytotoxicity toward DRD oncogenic fibroblasts, dose response, cell-based, non-viral oncogenic, luminescence (AID 1934); assay type: functional; conditions: Homo sapiens
[27] = system: INS1; experiment: beta cell apoptosis inhibitors, cytokine rescue, dose response, luminescence, retest (AID 449756); assay type: functional, cell-based; conditions: Rattus norvegicus;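 note: cell death triggered by IL-1 beta plus TNF-alpha plus IFN-gamma mixture; protective hits raise ATP signal compared with cytokine alone wells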
[28] = HepG2 cell cytotoxicity, dose response, cytotoxicity control for non-replicating M. tuberculosis project (AID 489018); assay type: functional; conditions: Mycobacterium tuberculosis
[29] = microbe, parasite or virus in culture; assay type: functional; conditions: Mycobacterium tuberculosis
[30] = system: BJ; experiment: cytotoxicity toward BJ-TERT fibroblasts, dose response, cell-based, RAS-independent, luminescence (AID 1933); assay type: functional; conditions: Homo sapiens
[31] = system: BJ; experiment: cytotoxicity toward BJ-TERT-LT-ST fibroblasts, dose response, cell-based, RAS-independent, luminescence (AID 1935); assay type: functional; conditions: Homo sapiens;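 note: BJ fibroblasts immortalized with TERT plus LT and ST oncogenes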

T1 sequence (Q92731 whole entry): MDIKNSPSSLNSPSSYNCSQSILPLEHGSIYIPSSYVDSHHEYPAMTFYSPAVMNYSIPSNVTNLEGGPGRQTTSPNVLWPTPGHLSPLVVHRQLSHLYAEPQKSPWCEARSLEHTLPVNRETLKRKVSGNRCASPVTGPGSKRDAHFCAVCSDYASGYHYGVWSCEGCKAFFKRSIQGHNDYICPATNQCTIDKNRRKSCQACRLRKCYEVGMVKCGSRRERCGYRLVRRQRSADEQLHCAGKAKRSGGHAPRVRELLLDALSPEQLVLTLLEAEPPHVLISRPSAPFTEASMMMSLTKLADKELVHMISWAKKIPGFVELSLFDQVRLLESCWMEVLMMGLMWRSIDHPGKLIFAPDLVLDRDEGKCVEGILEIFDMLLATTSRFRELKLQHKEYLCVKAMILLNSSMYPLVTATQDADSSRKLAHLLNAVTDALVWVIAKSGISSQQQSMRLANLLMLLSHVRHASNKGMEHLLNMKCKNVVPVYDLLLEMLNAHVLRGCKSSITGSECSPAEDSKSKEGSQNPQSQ
Chain of Protein-tyrosine kinase 2-beta (Q14289 whole entry): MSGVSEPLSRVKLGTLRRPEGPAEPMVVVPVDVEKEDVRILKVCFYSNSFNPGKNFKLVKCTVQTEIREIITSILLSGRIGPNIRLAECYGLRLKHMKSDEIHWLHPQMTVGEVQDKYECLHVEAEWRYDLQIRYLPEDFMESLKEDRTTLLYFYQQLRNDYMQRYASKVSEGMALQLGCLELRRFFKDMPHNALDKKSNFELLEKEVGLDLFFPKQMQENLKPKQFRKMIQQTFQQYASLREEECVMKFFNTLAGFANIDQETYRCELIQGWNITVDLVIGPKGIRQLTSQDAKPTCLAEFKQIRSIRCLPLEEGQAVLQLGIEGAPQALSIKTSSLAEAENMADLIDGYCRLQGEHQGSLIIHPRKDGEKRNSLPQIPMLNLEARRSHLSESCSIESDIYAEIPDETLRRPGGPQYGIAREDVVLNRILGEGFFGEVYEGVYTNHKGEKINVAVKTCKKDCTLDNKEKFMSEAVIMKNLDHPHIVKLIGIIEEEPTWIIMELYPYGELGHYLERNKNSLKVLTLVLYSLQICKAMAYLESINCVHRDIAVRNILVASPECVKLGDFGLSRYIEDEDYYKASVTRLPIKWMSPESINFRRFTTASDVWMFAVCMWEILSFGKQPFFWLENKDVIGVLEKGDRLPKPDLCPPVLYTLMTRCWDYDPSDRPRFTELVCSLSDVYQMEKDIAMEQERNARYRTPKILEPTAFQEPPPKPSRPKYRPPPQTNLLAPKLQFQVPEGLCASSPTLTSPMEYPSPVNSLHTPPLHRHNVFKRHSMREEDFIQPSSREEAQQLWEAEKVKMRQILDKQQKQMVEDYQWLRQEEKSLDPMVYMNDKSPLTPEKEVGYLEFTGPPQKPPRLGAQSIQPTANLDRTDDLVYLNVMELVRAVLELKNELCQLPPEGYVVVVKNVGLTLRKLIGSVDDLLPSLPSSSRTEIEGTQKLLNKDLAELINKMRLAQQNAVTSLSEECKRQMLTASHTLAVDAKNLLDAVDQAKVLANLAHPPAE
Chain of Estrogen receptor (P03372 whole entry): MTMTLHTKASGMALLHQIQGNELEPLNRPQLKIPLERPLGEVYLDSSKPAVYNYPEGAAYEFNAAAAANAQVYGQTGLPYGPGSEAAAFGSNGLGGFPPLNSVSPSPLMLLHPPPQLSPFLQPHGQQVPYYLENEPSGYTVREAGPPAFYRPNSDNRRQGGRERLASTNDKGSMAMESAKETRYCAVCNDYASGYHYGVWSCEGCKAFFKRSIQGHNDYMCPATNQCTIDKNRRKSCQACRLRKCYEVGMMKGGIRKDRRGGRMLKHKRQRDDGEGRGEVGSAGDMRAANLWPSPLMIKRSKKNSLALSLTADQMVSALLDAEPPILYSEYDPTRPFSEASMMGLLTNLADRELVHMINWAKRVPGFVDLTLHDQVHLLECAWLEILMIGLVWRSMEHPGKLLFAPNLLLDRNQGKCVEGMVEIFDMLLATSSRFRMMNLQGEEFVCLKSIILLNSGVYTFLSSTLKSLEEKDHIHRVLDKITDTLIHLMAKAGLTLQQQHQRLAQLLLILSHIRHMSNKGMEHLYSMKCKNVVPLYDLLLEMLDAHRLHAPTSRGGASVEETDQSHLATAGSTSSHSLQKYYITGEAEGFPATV
Chain of NS3 (A3EZJ3 whole entry): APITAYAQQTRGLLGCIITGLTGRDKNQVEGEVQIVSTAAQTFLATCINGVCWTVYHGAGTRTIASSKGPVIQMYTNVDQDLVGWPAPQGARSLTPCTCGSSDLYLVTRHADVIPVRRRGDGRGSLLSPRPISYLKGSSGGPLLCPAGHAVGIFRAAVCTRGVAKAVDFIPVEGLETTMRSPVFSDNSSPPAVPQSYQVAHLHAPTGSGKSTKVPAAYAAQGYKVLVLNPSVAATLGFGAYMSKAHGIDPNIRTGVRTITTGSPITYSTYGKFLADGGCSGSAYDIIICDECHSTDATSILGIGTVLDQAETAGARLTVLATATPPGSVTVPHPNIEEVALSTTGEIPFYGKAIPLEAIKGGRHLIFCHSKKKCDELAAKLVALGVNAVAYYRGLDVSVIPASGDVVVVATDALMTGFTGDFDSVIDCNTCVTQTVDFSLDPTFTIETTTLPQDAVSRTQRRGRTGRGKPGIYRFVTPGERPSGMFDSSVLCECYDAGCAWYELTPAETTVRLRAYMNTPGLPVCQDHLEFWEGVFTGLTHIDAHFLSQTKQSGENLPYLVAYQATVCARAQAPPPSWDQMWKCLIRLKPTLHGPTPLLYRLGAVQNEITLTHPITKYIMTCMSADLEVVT
Chain of 72 kDa type IV collagenase (P08253 whole entry): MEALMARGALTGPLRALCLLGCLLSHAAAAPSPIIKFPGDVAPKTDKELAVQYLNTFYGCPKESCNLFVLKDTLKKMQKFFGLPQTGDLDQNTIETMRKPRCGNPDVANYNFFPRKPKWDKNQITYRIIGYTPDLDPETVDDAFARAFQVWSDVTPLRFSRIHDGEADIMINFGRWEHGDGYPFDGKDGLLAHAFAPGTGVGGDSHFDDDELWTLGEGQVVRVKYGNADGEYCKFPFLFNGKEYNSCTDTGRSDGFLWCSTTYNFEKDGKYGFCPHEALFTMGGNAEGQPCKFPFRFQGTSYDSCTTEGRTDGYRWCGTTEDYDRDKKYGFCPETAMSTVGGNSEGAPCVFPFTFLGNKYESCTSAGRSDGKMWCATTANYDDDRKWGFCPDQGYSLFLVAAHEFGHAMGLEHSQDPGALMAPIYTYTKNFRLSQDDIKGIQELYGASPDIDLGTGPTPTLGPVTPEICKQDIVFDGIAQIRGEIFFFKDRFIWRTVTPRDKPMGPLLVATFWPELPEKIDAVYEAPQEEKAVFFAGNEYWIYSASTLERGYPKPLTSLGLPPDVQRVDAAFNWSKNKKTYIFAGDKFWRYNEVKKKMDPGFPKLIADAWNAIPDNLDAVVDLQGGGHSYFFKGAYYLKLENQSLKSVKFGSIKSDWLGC
Chain of 26S proteasome non-ATPase regulatory subunit 14 (O00487 whole entry): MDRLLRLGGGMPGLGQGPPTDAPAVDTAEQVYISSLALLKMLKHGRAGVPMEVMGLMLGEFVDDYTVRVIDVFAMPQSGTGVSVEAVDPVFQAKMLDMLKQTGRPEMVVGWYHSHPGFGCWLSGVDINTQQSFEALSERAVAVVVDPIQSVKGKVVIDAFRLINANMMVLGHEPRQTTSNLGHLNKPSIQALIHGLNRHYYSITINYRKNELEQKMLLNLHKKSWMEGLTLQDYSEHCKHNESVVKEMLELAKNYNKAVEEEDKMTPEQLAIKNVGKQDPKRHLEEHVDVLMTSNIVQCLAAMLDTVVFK
Chain of Luciferin 4-monooxygenase (P08659 whole entry): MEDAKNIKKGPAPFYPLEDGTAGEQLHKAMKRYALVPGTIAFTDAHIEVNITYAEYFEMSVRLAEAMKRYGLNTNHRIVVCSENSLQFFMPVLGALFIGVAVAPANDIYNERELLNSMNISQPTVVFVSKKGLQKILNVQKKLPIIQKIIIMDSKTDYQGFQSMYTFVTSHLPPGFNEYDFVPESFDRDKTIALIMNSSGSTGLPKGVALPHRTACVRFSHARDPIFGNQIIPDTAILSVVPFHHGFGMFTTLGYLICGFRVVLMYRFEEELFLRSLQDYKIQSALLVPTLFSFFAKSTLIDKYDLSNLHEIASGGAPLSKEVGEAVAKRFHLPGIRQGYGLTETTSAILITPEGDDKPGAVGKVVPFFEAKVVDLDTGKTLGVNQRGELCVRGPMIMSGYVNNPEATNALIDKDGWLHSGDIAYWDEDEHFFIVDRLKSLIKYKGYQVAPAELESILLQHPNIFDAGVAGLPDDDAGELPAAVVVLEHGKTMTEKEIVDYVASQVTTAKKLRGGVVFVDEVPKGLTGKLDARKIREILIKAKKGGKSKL

Q: Which results are given for CCc1cc2c(=O)n(Cc3ccco3)c(SCc3c(C)noc3C)nc2s1?
A: EC50 [1]: 15.3 µM (active); EC50 [2]: 0.34 µM (active); IC50 [3]: 25.6 µM (not active)

Q: What does the source list for CCCNC(=O)c1ccc(-c2nc3ccccc3s2)s1?
A: EC50 [4]: 10.7 µM (inconclusive); IC50 [5]: 30.3 µM (not active); IC50 [6]: > 50 µM (not active); IC50 [7]: 102 µM (not active); EC50 [8]: 7.23 µM (active)

Q: What does the source list for COC(=O)c1[nH]c2ccc(C)cc2c1NC(=O)CN1CCCc2ccccc21?
A: IC50 [9]: 15.2 µM (not active); IC50 [6]: < 1.56 µM (active); EC50 [10]: < 0.1 µM (active); IC50 [7]: 1.03 µM (not active); EC50 [11]: > 60 µM (not active); EC50 [12]: 0.639 µM (active); IC50 [13]: 16.7 µM (active); IC50 [14]: > 100 µM (inactive); IC50 [15]: > 100 µM (inactive)

Q: What does the source list for Cc1nc2ccc(NC(=O)c3ccc(Cl)s3)cc2s1?
A: EC50 [16]: 0.443 µM (active); EC50 [17]: 0.491 µM (active); EC50 [18]: < 0.1 µM (active); EC50 [19]: < 0.1 µM (active); EC50 [20]: 0.363 µM (active); EC50 [21]: 12.5 µM (active)

Q: With COc1cc(C2Nc3ccc4ncccc4c3C3=C2C(=O)CCC3)cc(OC)c1O (stereo not drawn) as the molecule, how does the IC50 [9] read?
A: The IC50 was 12.7 µM (not active).

Q: For CCOc1ccc(OCc2ccc(C(=O)N/N=C(\C)c3ccccn3)cc2)cc1, which EC50 [22] is on record?
A: Its EC50 is 1.25 µM (active).

Q: What about the AC50 [23] of the same molecule?
A: The AC50 was 3.64 µM (active).

Q: And the CC50 [24]?
A: Its CC50 is 3.37 µM (active).

Q: And the CC50 [25]?
A: Its CC50 is 1.37 µM (active).

Q: What about the EC50 [26] of the same molecule?
A: The EC50 was 25.4 µM (inconclusive).

Q: What about the AC50 [27] of the same molecule?
A: The AC50 was 0.712 µM (active).

Q: And the CC50 [28]?
A: Its CC50 is 5.83 µM (active).

Q: And the CC50 [29]?
A: The CC50 was 4.15 µM (active).

Q: And the EC50 [30]?
A: The EC50 was 0.75 µM (active).

Q: What about the EC50 [31] of the same molecule?
A: The EC50 was 3.92 µM (inconclusive).

Q: With COc1ccc(C2C(=O)c3ccccc3C2=O)c(OC)c1 as the molecule, how does the EC50 [16] read?
A: Its EC50 is > 12 µM (not active).

Q: And the EC50 [17]?
A: The EC50 was > 12 µM (not active).

Q: And the EC50 [18]?
A: The EC50 was < 0.1 µM (inconclusive).

Q: And the EC50 [20]?
A: Its EC50 is 0.104 µM (inconclusive).
